Laboratory results reported in PubChem BioAssay (NCI).
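1) Cells in 96-well plates. 2) Compound, 48 h, 5 concentrations. 3) Linear interpolation between surrounding doses. 4) Unreached endpoint = highest concentration. At the TGI there is no net growth.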

These compounds were tested on NCI-H23 lung (assay: growth of human tumour cells (NCI), 48 h).

Row | SMILES | TGI
1 | c1coc(C2=Nc3cccc4cccc(c34)N2)c1 | > 100 µM
2 | CCOC(=O)C1C(=O)C=C(c2cc(C)ccc2O)CC1c1cccc(Cl)c1 (centres undefined) | 88.6 µM
3 | CC1=CC(C)(C)[C@H]2O[C@@]3(O)C[C@]4(C)[C@H]5C[C@@](C(C)C)(O[C@H]4c4ccoc4)O[C@H]4[C@]5(C3)O[C@@]1(O)[C@]24O | > 100 µM

What follows are compounds tested on BT-549 breast (assay: growth of human tumour cells (NCI), 48 h).

Row | SMILES | TGI
4 | O=C1c2[nH]c3ccccc3c2CCN2CCCCC12 (centres undefined) | 65.8 µM
5 | COc1ccc(/C=C2\Oc3cc(OC(C)=O)ccc3C2=O)cc1 | > 100 µM
6 | c1coc(C2=Nc3cccc4cccc(c34)N2)c1 | > 100 µM
7 | CCOC(=O)C1C(=O)C=C(c2cc(C)ccc2O)CC1c1cccc(Cl)c1 (centres undefined) | > 100 µM
8 | CC1=CC(C)(C)[C@H]2O[C@@]3(O)C[C@]4(C)[C@H]5C[C@@](C(C)C)(O[C@H]4c4ccoc4)O[C@H]4[C@]5(C3)O[C@@]1(O)[C@]24O | > 100 µM

These compounds were tested on SW-620 colon (assay: growth of human tumour cells (NCI), 48 h).

Row | SMILES | TGI
9 | O=C1c2[nH]c3ccccc3c2CCN2CCCCC12 (centres undefined) | 65.9 µM
10 | COc1ccc(/C=C2\Oc3cc(OC(C)=O)ccc3C2=O)cc1 | > 100 µM
11 | c1coc(C2=Nc3cccc4cccc(c34)N2)c1 | > 100 µM
12 | CCOC(=O)C1C(=O)C=C(c2cc(C)ccc2O)CC1c1cccc(Cl)c1 (centres undefined) | > 100 µM
13 | CC1=CC(C)(C)[C@H]2O[C@@]3(O)C[C@]4(C)[C@H]5C[C@@](C(C)C)(O[C@H]4c4ccoc4)O[C@H]4[C@]5(C3)O[C@@]1(O)[C@]24O | > 100 µM

Each compound was assayed on MALME-3M melanoma (assay: growth of human tumour cells (NCI), 48 h).

Row | SMILES | TGI
14 | O=C1c2[nH]c3ccccc3c2CCN2CCCCC12 (centres undefined) | 46.5 µM
15 | c1coc(C2=Nc3cccc4cccc(c34)N2)c1 | > 100 µM
16 | CCOC(=O)C1C(=O)C=C(c2cc(C)ccc2O)CC1c1cccc(Cl)c1 (centres undefined) | 75.6 µM
17 | CC1=CC(C)(C)[C@H]2O[C@@]3(O)C[C@]4(C)[C@H]5C[C@@](C(C)C)(O[C@H]4c4ccoc4)O[C@H]4[C@]5(C3)O[C@@]1(O)[C@]24O | > 100 µM

The compounds below were run on MDA-N (assay: growth of human tumour cells (NCI), 48 h).

Row | SMILES | TGI
18 | O=C1c2[nH]c3ccccc3c2CCN2CCCCC12 (centres undefined) | 39.6 µM
19 | COc1ccc(/C=C2\Oc3cc(OC(C)=O)ccc3C2=O)cc1 | > 100 µM
20 | c1coc(C2=Nc3cccc4cccc(c34)N2)c1 | > 100 µM
21 | CCOC(=O)C1C(=O)C=C(c2cc(C)ccc2O)CC1c1cccc(Cl)c1 (centres undefined) | 29.8 µM
22 | CC1=CC(C)(C)[C@H]2O[C@@]3(O)C[C@]4(C)[C@H]5C[C@@](C(C)C)(O[C@H]4c4ccoc4)O[C@H]4[C@]5(C3)O[C@@]1(O)[C@]24O | > 100 µM

The compounds below were run on NCI/ADR-RES ovarian (assay: growth of human tumour cells (NCI), 48 h).

Row | SMILES | TGI
23 | O=C1c2[nH]c3ccccc3c2CCN2CCCCC12 (centres undefined) | 59 µM
24 | COc1ccc(/C=C2\Oc3cc(OC(C)=O)ccc3C2=O)cc1 | > 100 µM
25 | c1coc(C2=Nc3cccc4cccc(c34)N2)c1 | 44.4 µM
26 | CCOC(=O)C1C(=O)C=C(c2cc(C)ccc2O)CC1c1cccc(Cl)c1 (centres undefined) | 54.2 µM
27 | CC1=CC(C)(C)[C@H]2O[C@@]3(O)C[C@]4(C)[C@H]5C[C@@](C(C)C)(O[C@H]4c4ccoc4)O[C@H]4[C@]5(C3)O[C@@]1(O)[C@]24O | > 100 µM

These compounds were tested on DU-145 prostate (assay: growth of human tumour cells (NCI), 48 h).

Row | SMILES | TGI
28 | O=C1c2[nH]c3ccccc3c2CCN2CCCCC12 (centres undefined) | > 100 µM
29 | COc1ccc(/C=C2\Oc3cc(OC(C)=O)ccc3C2=O)cc1 | > 100 µM
30 | c1coc(C2=Nc3cccc4cccc(c34)N2)c1 | > 100 µM
31 | CCOC(=O)C1C(=O)C=C(c2cc(C)ccc2O)CC1c1cccc(Cl)c1 (centres undefined) | > 100 µM
32 | CC1=CC(C)(C)[C@H]2O[C@@]3(O)C[C@]4(C)[C@H]5C[C@@](C(C)C)(O[C@H]4c4ccoc4)O[C@H]4[C@]5(C3)O[C@@]1(O)[C@]24O | > 100 µM

These compounds were tested on SNB-19 CNS (assay: growth of human tumour cells (NCI), 48 h).

Row | SMILES | TGI
33 | O=C1c2[nH]c3ccccc3c2CCN2CCCCC12 (centres undefined) | 61.7 µM
34 | COc1ccc(/C=C2\Oc3cc(OC(C)=O)ccc3C2=O)cc1 | > 100 µM
35 | c1coc(C2=Nc3cccc4cccc(c34)N2)c1 | > 100 µM
36 | CCOC(=O)C1C(=O)C=C(c2cc(C)ccc2O)CC1c1cccc(Cl)c1 (centres undefined) | 44.2 µM
37 | CC1=CC(C)(C)[C@H]2O[C@@]3(O)C[C@]4(C)[C@H]5C[C@@](C(C)C)(O[C@H]4c4ccoc4)O[C@H]4[C@]5(C3)O[C@@]1(O)[C@]24O | > 100 µM

The compounds below were run on SK-OV-3 ovarian (assay: growth of human tumour cells (NCI), 48 h).

Row | SMILES | TGI
38 | O=C1c2[nH]c3ccccc3c2CCN2CCCCC12 (centres undefined) | > 100 µM
39 | COc1ccc(/C=C2\Oc3cc(OC(C)=O)ccc3C2=O)cc1 | > 100 µM
40 | c1coc(C2=Nc3cccc4cccc(c34)N2)c1 | > 100 µM
41 | CCOC(=O)C1C(=O)C=C(c2cc(C)ccc2O)CC1c1cccc(Cl)c1 (centres undefined) | 79.7 µM
42 | CC1=CC(C)(C)[C@H]2O[C@@]3(O)C[C@]4(C)[C@H]5C[C@@](C(C)C)(O[C@H]4c4ccoc4)O[C@H]4[C@]5(C3)O[C@@]1(O)[C@]24O | > 100 µM

The compounds below were run on MDA-MB-231 breast (assay: growth of human tumour cells (NCI), 48 h).

Row | SMILES | TGI
43 | O=C1c2[nH]c3ccccc3c2CCN2CCCCC12 (centres undefined) | 41.3 µM
44 | COc1ccc(/C=C2\Oc3cc(OC(C)=O)ccc3C2=O)cc1 | > 100 µM
45 | c1coc(C2=Nc3cccc4cccc(c34)N2)c1 | > 100 µM
46 | CCOC(=O)C1C(=O)C=C(c2cc(C)ccc2O)CC1c1cccc(Cl)c1 (centres undefined) | 83.4 µM
47 | CC1=CC(C)(C)[C@H]2O[C@@]3(O)C[C@]4(C)[C@H]5C[C@@](C(C)C)(O[C@H]4c4ccoc4)O[C@H]4[C@]5(C3)O[C@@]1(O)[C@]24O | > 100 µM

The compounds below were run on SR leukemia (assay: growth of human tumour cells (NCI), 48 h).

Row | SMILES | TGI
48 | COc1ccc(/C=C2\Oc3cc(OC(C)=O)ccc3C2=O)cc1 | > 100 µM
49 | c1coc(C2=Nc3cccc4cccc(c34)N2)c1 | > 100 µM
50 | CCOC(=O)C1C(=O)C=C(c2cc(C)ccc2O)CC1c1cccc(Cl)c1 (centres undefined) | 34.9 µM
51 | CC1=CC(C)(C)[C@H]2O[C@@]3(O)C[C@]4(C)[C@H]5C[C@@](C(C)C)(O[C@H]4c4ccoc4)O[C@H]4[C@]5(C3)O[C@@]1(O)[C@]24O | > 100 µM

What follows are compounds tested on KM12 colon (assay: growth of human tumour cells (NCI), 48 h).

Row | SMILES | TGI
52 | O=C1c2[nH]c3ccccc3c2CCN2CCCCC12 (centres undefined) | 32.4 µM
53 | COc1ccc(/C=C2\Oc3cc(OC(C)=O)ccc3C2=O)cc1 | > 100 µM
54 | c1coc(C2=Nc3cccc4cccc(c34)N2)c1 | 40.8 µM
55 | CCOC(=O)C1C(=O)C=C(c2cc(C)ccc2O)CC1c1cccc(Cl)c1 (centres undefined) | 69 µM
56 | CC1=CC(C)(C)[C@H]2O[C@@]3(O)C[C@]4(C)[C@H]5C[C@@](C(C)C)(O[C@H]4c4ccoc4)O[C@H]4[C@]5(C3)O[C@@]1(O)[C@]24O | > 100 µM

What follows are compounds tested on HT29 colon (assay: growth of human tumour cells (NCI), 48 h).

Row | SMILES | TGI
57 | O=C1c2[nH]c3ccccc3c2CCN2CCCCC12 (centres undefined) | > 100 µM
58 | c1coc(C2=Nc3cccc4cccc(c34)N2)c1 | 57.3 µM
59 | CCOC(=O)C1C(=O)C=C(c2cc(C)ccc2O)CC1c1cccc(Cl)c1 (centres undefined) | 86.7 µM
60 | CC1=CC(C)(C)[C@H]2O[C@@]3(O)C[C@]4(C)[C@H]5C[C@@](C(C)C)(O[C@H]4c4ccoc4)O[C@H]4[C@]5(C3)O[C@@]1(O)[C@]24O | > 100 µM

These compounds were tested on EKVX NSCLC (assay: growth of human tumour cells (NCI), 48 h).

Row | SMILES | TGI
61 | O=C1c2[nH]c3ccccc3c2CCN2CCCCC12 (centres undefined) | 53.7 µM
62 | COc1ccc(/C=C2\Oc3cc(OC(C)=O)ccc3C2=O)cc1 | > 100 µM
63 | c1coc(C2=Nc3cccc4cccc(c34)N2)c1 | > 100 µM
64 | CCOC(=O)C1C(=O)C=C(c2cc(C)ccc2O)CC1c1cccc(Cl)c1 (centres undefined) | > 100 µM
65 | CC1=CC(C)(C)[C@H]2O[C@@]3(O)C[C@]4(C)[C@H]5C[C@@](C(C)C)(O[C@H]4c4ccoc4)O[C@H]4[C@]5(C3)O[C@@]1(O)[C@]24O | > 100 µM

The compounds below were run on HL-60(TB) leukemia (assay: growth of human tumour cells (NCI), 48 h).

Row | SMILES | TGI
66 | O=C1c2[nH]c3ccccc3c2CCN2CCCCC12 (centres undefined) | 13.3 µM
67 | COc1ccc(/C=C2\Oc3cc(OC(C)=O)ccc3C2=O)cc1 | > 100 µM
68 | c1coc(C2=Nc3cccc4cccc(c34)N2)c1 | 65.4 µM
69 | CCOC(=O)C1C(=O)C=C(c2cc(C)ccc2O)CC1c1cccc(Cl)c1 (centres undefined) | 63.5 µM
